Measured values: patent US10413517B2, “Composition and method for the treatment of neurological diseases and cerebral injury” (UNIVERSITY OF NOTRE DAME DU LAC, priority 2014, dated 2019)

Tests used:
GFAP, MIP1α and CD68 = experiment: qPCR of inflammatory markers in the brain; assay type: in vivo, mouse; settings: day 100, once weekly dosing
Description: (§1) Vorinostat (50 mg/Kg)—Vorinostat was first dissolved in DMSO (100 mg/ml) and then diluted with 9 volume of Polyethylene Glycol 400 (PEG). This drug solution was named as ‘solution A’. Solution A was diluted with equal volume of water where the final concentration of each component was as follows; Vorinostat, 5 mg/ml; DMSO, 5% and PEG, 45%. Mice were given weekly intraperitoneal (i.p) injections starting at 21 days. Vorinostat (100 mg/Kg)—Vorinostat was first dissolved in DMSO (200 mg/ml) and then mixed with 9 volumes of PEG. Rest of the methods and injections plan were as described above. HPBCD (4000 mg/Kg)—40% HPBCD solution prepared in water. Mice were given weekly i.p injections starting at 7 days. HPBCD (2000 mg/Kg)—20% HPBCD solution prepared in water. Mice were given weekly i.p injections starting at 7 days. TCF (Vorinostat, 50 mg/Kg+HPBCD, 2000 mg/Kg, DMSO, 5%+PEG, 45%)—To prepare the formulation, the ‘solution A’ was first prepared as described above and equal volume of 40% HPBCD solution was slowly layered on top of it. The solution was gently mixed for 10 min at RT on rocker set at medium speed. […]
(§2) Quantitative PCR (qPCR) was performed using Power SYBR Green RNA-to-CT 1-Step Kit and an ABI Prism 7500 Fast real-time PCR system (Applied Biosystems, Grand Island, USA). […] The relative amount of transcript was determined using comparative CT method. […]

Npc1 transcript = experiment: qPCR of Npc1 transcript in liver; assay type: in vivo, mouse; settings: at 100 days
Description: as §1, §2

[1] = delivered systemically; cited from earlier work
Npc1^nmf164 fibroblasts = experiment: Filipin staining of cholesterol in cultured mouse skin fibroblasts; assay type: cell-based; settings: 5 μM Vo for 48 hrs
Description: Ear pinna was cleaned with 70% alcohol and 2-3 small pieces (3×3 mm) were chopped and placed in 70% alcohol for 2 min and transferred to DMEM. Tissues were cut into small pieces and 2 ml of 0.25% trypsin were added, vigorously vortexed for 2 min and incubated at 37° C. with vortexing every 10 min. Trypsin was inactivated by adding 2 ml of culture media (DMEM+10%FBS). Cells were collected by spin (1000 rpm for 5 min), and were grown in DMEM+10% FBS in the presence penicillin (50 U/ml) and streptomycin (50 μg/ml). For treatment with vorinostat, fibroblasts (4×10^4) were plated in 24 well plate containing glass slide. Npc1^nmf164 fibroblasts were treated with 5 μM vorinostat for 48 hrs. Cells incubated with 0.025% DMSO served as vehicle control. Cells were fixed with 4% paraformaldehyde followed by incubation with filipin (100 μg/ml) to stain cholesterol. Slides were mounted using Vectashield (Vector laboratories) and processed for fluorescence microscopy.
(§3) Tissue sections after IFA and filipin stained fibroblasts were visualized with 40× oil-immersion objective lens (NA 1.35). […] Digital image collection were performed using an Olympus IX inverted fluorescence microscope and a Photometrix cooled CCD camera (CH350/LCCD) driven by DeltaVision software from Applied Precision (Seattle, Wash., USA). […] Images were analyzed using ImageJ software (NIH, MD, USA).

[2] = tested on: CD68, ITGAX, MIP1α and CTSD; experiment: qPCR of inflammatory markers in the liver; assay type: in vivo, mouse; settings: 100 days; Vo 50 mg/Kg; HPBCD 2000 mg/Kg; TCF
Description: as §1, §2

NPC1 protein = experiment: NPC1 immunostaining of Purkinje cells in cerebellar sections; assay type: in vivo, mouse; settings: 100 days old mice
Description: Mice were sacrificed by asphyxiation using CO2. Harvested organs were immersed fixed in 10% neutral buffered formalin (˜4% formaldehyde) for 24 hrs at RT. The organs were subsequently stored in 70% alcohol at RT until transfer to paraffin. Paraffin-embedded tissue sections (4-5 μm) were dewaxed in xylene and alcohol. Calbindin antigen retrieval was done by pre-incubating deparaffinized samples with 0.05% proteinase K (Dako, Germany) in 50 mM Tris-HCl (pH 7.5) for 8 min at RT. CTSS and NPC1 was retrieved by boiling the sections in acidic condition for 30 min. Blocking was done either with 2% goat serum (for calbindin and NPC1) or 2% rabbit serum (for cathepsin S) for 30 min at RT. Sections were incubated with anti-calbindin (1:1000, C9848, Sigma), anti-cathepsin S (20 μg/ml, M-19, Santa Cruz Biotechnology), anti-NPC1 (custom made against human NPC1 protein, 20 μg/ml) overnight at 4° C. […] Vectashield (Vector laboratories) was used as mounting medium and processed for fluorescence microscopy.
as §3

[3] = cited from earlier work

| SMILES | levels of inflammatory markers GFAP, MIP1α and CD68 in the brain (GFAP, MIP1α and CD68) | Npc1 transcript levels in the liver (Npc1 transcript) | crossing of the blood brain barrier [1] | cholesterol levels in NPC fibroblasts (filipin) (Npc1^nmf164 fibroblasts) | cholesterol levels in NPC fibroblasts (filipin) (Npc1^nmf164 fibroblasts; listed as Vorinostat) | inflammatory markers in the liver [2] | NPC1 staining in Purkinje cells (in words) (NPC1 protein) | solubility in aqueous solution [3] |
| --- | --- | --- | --- | --- | --- | --- | --- | --- |
| CC(O)COC[C@H]1O[C@@H]2O[C@H]3[C@H](O)[C@@H](O)[C@@H](O[C@H]4[C@H](O)[C@@H](O)[C@@H](O[C@H]5[C@H](O)[C@@H](O)[C@@H](O[C@H]6[C@H](O)[C@@H](O)[C@@H](O[C@H]7[C@H](O)[C@@H](O)[C@@H](O[C@H]8[C@H](O)[C@@H](O)[C@@H](O[C@H]1[C@H](O)[C@H]2O)O[C@@H]8COCC(C)O)O[C@@H]7COCC(C)O)O[C@@H]6COCC(C)O)O[C@@H]5COCC(C)O)O[C@@H]4COCC(C)O)O[C@@H]3COCC(C)O (stereo partly drawn) [HPBCD, 2-Hydroxypropyl-β-cyclodextrin] | reduced their levels comparably to TCF and better than Vo | no effect on target Npc1 expression | does not cross the blood brain barrier | – | – | – | – | – |
| O=C(CCCCCCC(=O)Nc1ccccc1)NO [vorinostat] | – | – | – | reduced | decreased cholesterol levels in NPC cells to those seen in fibroblasts from control | significant anti-inflammatory activity | Slight staining of NPC1 | poorly soluble in aqueous solution |
